From US10358436B2, “Kinase inhibitors and method of treating cancer” (University Health Network, priority 2010, dated 2019)
Where a name gives a salt, the structure may show the parent alone.

Target: Aurora A (Homo sapiens (Human), UniProt O14965)
Test: Aurora A inhibition assay (Z-Lyte)
Type: biochemical

Aurora A, sequence (O14965 whole entry): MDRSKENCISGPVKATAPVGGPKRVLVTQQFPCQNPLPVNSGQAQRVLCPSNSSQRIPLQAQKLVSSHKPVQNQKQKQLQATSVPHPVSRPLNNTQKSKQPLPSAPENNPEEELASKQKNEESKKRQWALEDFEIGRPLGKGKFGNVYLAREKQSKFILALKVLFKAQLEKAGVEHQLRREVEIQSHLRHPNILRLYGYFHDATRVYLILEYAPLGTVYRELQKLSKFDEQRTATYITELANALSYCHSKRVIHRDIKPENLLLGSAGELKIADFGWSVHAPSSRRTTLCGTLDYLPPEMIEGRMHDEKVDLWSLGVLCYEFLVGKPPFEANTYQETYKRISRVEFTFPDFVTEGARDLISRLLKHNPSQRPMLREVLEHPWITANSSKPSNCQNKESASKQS

SMILES | inhibition at 1 µM [%]
CN1CCc2cc(/C=C/c3n[nH]c4cc([C@@H]5C[C@@]56C(=O)Nc5ccccc56)ccc34)ccc2C1 [Example A74, (1R,2S)-2-(3-((E)-2-(2-methyl-1,2,3,4-tetrahydroisoquinolin-6-yl)vinyl)-1H-indazol-6-yl)spiro[cyclopropane-1,3′-indolin]-2′-one 2,2,2-trifluoroacetate salt] | > 50
COc1ccc2c(c1)[C@]1(C[C@H]1c1ccc3c(-c4ccc(N5C[C@@H](C)N[C@@H](C)C5)cc4)n[nH]c3c1)C(=O)N2 [Example A126, (1R,2S)-2-(3-(4-(cis-3,5-dimethylpiperazin-1-yl)phenyl)-1H-indazol-6-yl)-5′-methoxyspiro[cyclopropane-1,3′-indolin]-2′-one 2,2,2-trifluoroacetate] | < 50
COCCN1C(=O)[C@@]2(C[C@H]2c2ccc3c(/C=C/c4ccc(CN(C)C)cc4)n[nH]c3c2)c2ccccc21 [Example A131, (1R,2S)-(E)-2-(3-(4-((dimethylamino)methyl)styryl)-1H-indazol-6-yl)-1′-(2-methoxyethyl)spiro[cyclopropane-1,3′-indolin]-2′-one 2,2,2-trifluoroacetate] | > 50
CCN(CC)Cc1c(F)cc(/C=C/c2n[nH]c3cc([C@@H]4C[C@@]45C(=O)Nc4ccc(OC)cc45)ccc23)cc1F [Example A146, (1R,2S)-(E)-2-(3-(4-((diethylamino)methyl)-3,5-difluorostyryl)-1H-indazol-6-yl)-5′-methoxyspiro[cyclopropane-1,3′-indolin]-2′-one 2,2,2-trifluoroacetate] | < 50
COc1ccc2c(c1)[C@]1(C[C@H]1c1ccc3c(/C=C/c4cccc(CN5CCOCC5)c4)n[nH]c3c1)C(=O)N2 (relative stereo) [Example A133, (1R*,2S*)-5′-methoxy-2-(3-(3-(morpholinomethyl)styryl)-1H-indazol-6-yl)spiro[cyclopropane-1,3′-indolin]-2′-one 2,2,2-trifluoroacetate] | > 50
CCc1ccc2c(c1)[C@]1(C[C@H]1c1ccc3c(-c4cccc(CN5CCOCC5)c4)n[nH]c3c1)C(=O)N2 (relative stereo) [Example A141, (1R*,2S*)-5′-ethyl-2-(3-(3-(morpholinomethyl)phenyl)-1H-indazol-6-yl)spiro[cyclopropane-1,3′-indolin]-2′-one 2,2,2-trifluoroacetate] | < 50
N#Cc1ccc(/C=C/c2n[nH]c3cc([C@@H]4C[C@@]45C(=O)Nc4ccccc45)ccc23)cc1 (relative stereo) [Example A54, 4-((E)-2-(6-((1R*,2S*)-2′-oxospiro[cyclopropane-1,3′-indoline]-2-yl)-1H-indazol-3-yl)vinyl)benzonitrile] | > 50
O=C1Nc2ccccc2[C@]12C[C@H]2c1ccc2c(/C=C/c3ccccn3)n[nH]c2c1 (relative stereo) [Example A53, (1R*,2S*)-2-(3-((E)-2-(pyridin-2-yl)vinyl)-1H-indazol-6-yl)spiro[cyclopropane-1,3′-indolin]-2′-one] | > 50
CC(C)(c1ccc(/C=C/c2n[nH]c3cc([C@@H]4C[C@@]45C(=O)Nc4ccccc45)ccc23)cc1)N1CCOCC1 [Example A80, (1R,2S)-(E)-2-(3-(4-(2-morpholinopropan-2-yl)styryl)-1H-indazol-6-yl)spiro[cyclopropane-1,3′-indolin]-2′-one 2,2,2-trifluoroacetate salt] | > 50
O=C1Nc2ccccc2[C@]12C[C@H]2c1ccc2c(I)n[nH]c2c1 [Example A10, (1R,2S)-2-(3-iodo-1H-indazol-6-yl)spiro[cyclopropane-1,3′-indolin]-2′-one] | < 50
O=C1Nc2ccccc2[C@@]12C[C@@H]2c1ccc2c(/C=C/c3cccnc3)n[nH]c2c1 [Example A30, (1S,2R)-2-(3-((E)-2-(pyridin-3-yl)vinyl)-1H-indazol-6-yl)spiro[cyclopropane-1,3′-indolin]-2′-one] | > 50
COc1ccc2c(c1)[C@]1(C[C@H]1c1ccc3c(/C=C/c4ccc(OC5CCN(C)CC5)cc4)n[nH]c3c1)C(=O)N2 [Example A79, (1R,2S)-(E)-5′-methoxy-2-(3-(4-(1-methylpiperidin-4-yloxy)styryl)-1H-indazol-6-yl)spiro[cyclopropane-1,3′-indolin]-2′-one 2,2,2-trifluoroacetate salt] | > 50
COc1ccc2c(c1)[C@]1(C[C@H]1c1ccc3c(-c4ccc(OCCN5CCCCC5)cc4)n[nH]c3c1)C(=O)N2 [Example A67, (1R,2S)-5′-methoxy-2-(3-(4-(2-(piperidin-1-yl)ethoxy)phenyl)-1H-indazol-6-yl)spiro[cyclopropane-1,3′-indolin]-2′-one 2,2,2-trifluoroacetate salt] | < 50
COc1ccc2c(c1)[C@]1(CC1c1ccc3c(/C=C/c4ccc(N5CCN(C)CC5)nc4)n[nH]c3c1)C(=O)N2 (single isomer, unassigned) [Example A31, (1R*,2S*)-5′-methoxy-2-(3-((E)-2-(6-(4-methylpiperazin-1-yl)pyridin-3-yl)vinyl)-1H-indazol-6-yl)spiro[cyclopropane-1,3′-indolin]-2′-one] | > 50

The next lines start with the values.

inhibition at 1 µM [%] | SMILES
> 50 | COc1ccc2c(c1)[C@]1(C[C@H]1c1ccc3c(/C=C/c4ccc(N5CCN(C(C)C)CC5)cc4)n[nH]c3c1)C(=O)N2 (relative stereo) [Example A189, (1R*,2S*)-(E)-2-(3-(4-(4-isopropylpiperazin-1-yl)styryl)-1H-indazol-6-yl)-5′-methoxyspiro[cyclopropane-1,3′-indolin]-2′-one 2,2,2-trifluoroacetate]
> 50 | Cc1ccc(/C=C/c2n[nH]c3cc([C@@H]4C[C@@]45C(=O)Nc4ccccc45)ccc23)cn1 [Example A150, (1R,2S)-2-(3-((E)-2-(6-methylpyridin-3-yl)vinyl)-1H-indazol-6-yl)spiro[cyclopropane-1,3′-indolin]-2′-one]
> 50 | COc1ccc2c(c1)[C@]1(C[C@H]1c1ccc3c(/C=C/c4ccc(CN5CCOCC5)c(F)c4)n[nH]c3c1)C(=O)N2 [Example A199, (1R,2S)-(E)-2-(3-(3-fluoro-4-(morpholinomethyl)styryl)-1H-indazol-6-yl)-S-methoxyspiro[cyclopropane-1,3′-indolin]-2′-one 2,2,2-trifluoroacetate]
> 50 | COc1ccc2c(c1)[C@]1(C[C@H]1c1ccc3c(/C=C/c4ccc(N5CCNCC5)cc4)n[nH]c3c1)C(=O)N2 (relative stereo) [Example A182, (1R*,2S*)-5′-methoxy-2-(3-(4-(piperazin-1-yl)styryl)-1H-indazol-6-yl)spiro[cyclopropane-1,3′-indolin]-2′-one 2,2,2-trifluoroacetate]
> 50 | COc1ccc2c(c1)[C@]1(C[C@H]1c1ccc3c(/C=C/c4csc(CN5CCOCC5)c4)n[nH]c3c1)C(=O)N2 (relative stereo) [Example A184, (1R*,2S*)-5′-methoxy-2-(3-((E)-2-(5-(morpholinomethyl)thiophen-3-yl)vinyl)-1H-indazol-6-yl)spiro[cyclopropane-1,3′-indolin]-2′-one 2,2,2-trifluoroacetate]
> 50 | O=C1Nc2ccccc2[C@]12C[C@H]2c1ccc2c(/C=C/c3ccc(CN4CCOCC4)c(F)c3)n[nH]c2c1 [Example A200, (1R,2S)-(E)-2-(3-(3-fluoro-4-(morpholinomethyl)styryl)-1H-indazol-6-yl)spiro[cyclopropane-1,3′-indolin]-2′-one 2,2,2-trifluoroacetate]
> 50 | CN(C)Cc1ccc(/C=C/c2n[nH]c3cc([C@@H]4C[C@@]45C(=O)Nc4ccc(F)cc45)ccc23)cc1 (relative stereo) [Example A208, (1R*,2S*)-(E)-2-(3-(4-((dimethylamino)methyl)styryl)-1H-indazol-6-yl)-5′-flurorospiro[cyclopropane-1,3′-indolin]-2′-one 2,2,2-trifluoroacetate]
> 50 | COc1ccc2c(c1)[C@]1(C[C@H]1c1ccc3c(/C=C/c4csc(CN5CCOCC5)c4)n[nH]c3c1)C(=O)N2 [Example A183, (1R,2S)-5′-methoxy-2-(3-((E)-2-(5-(morpholinomethyl)thiophen-3-yl)vinyl)-1H-indazol-6-yl)spiro[cyclopropane-1,3′-indolin]-2′-one 2,2,2-trifluoroacetate]
< 50 | COc1ccc2c(c1)[C@]1(C[C@H]1c1ccc3c(-c4ccc(CCN5CCOCC5)cc4)n[nH]c3c1)C(=O)N2 (relative stereo) [Example A159, (1R*,2S*)-5′-methoxy-2-(3-(4-(2-morpholinoethyl)phenyl)-1H-indazol-6-yl)spiro[cyclopropane-1,3′-indolin]-2′-one 2,2,2-trifluoroacetate]
> 50 | COc1ccc2c(c1)[C@]1(C[C@H]1c1ccc3c(/C=C/c4ccc(N5CCOCC5)nc4)n[nH]c3c1)C(=O)N2 (relative stereo) [Example A213, (1R*,2S*)-5′-methoxy-2-(3-((E)-2-(6-morpholinopyridin-3-yl)vinyl)-1H-indazol-6-yl)spiro[cyclopropane-1,3′-indolin]-2′-one 2,2,2-trifluoroacetate]
> 50 | Cc1ccc2c(c1)[C@]1(C[C@H]1c1ccc3c(/C=C/c4ccc(CN(C)C)cc4)n[nH]c3c1)C(=O)N2 (relative stereo) [Example A169, (1R*,2S*)-(E)-2-(3-(4-((dimethylamino)methyl)styryl)-1H-indazol-6-yl)-5′-methylspiro[cyclopropane-1,3′-indolin]-2′-one 2,2,2-trifluoroacetate]
> 50 | O=C1Nc2ccc(F)cc2[C@]12C[C@H]2c1ccc2c(/C=C/c3ccc(CN4CCOCC4)cc3)n[nH]c2c1 [Example A220]
< 50 | COc1ccc2c(c1)[C@]1(C[C@H]1c1ccc3c(/C=C/c4ccc(N5CCN(C)CC5)cc4)n[nH]c3c1)C(=O)N2 [Example A175, (1R,2S)-(E)-5′-methoxy-2-(3-(4-(4-methylpiperazin-1-yl)styryl)-1H-indazol-6-yl)spiro[cyclopropane-1,3′-indolin]-2′-one 2,2,2-trifluoroacetate]
